Source: the NIST ThermoML archive (doi:10.1016/j.jct.2015.11.013)
Several values for one entry are separate records, joined by “and”; a condition that tells them apart may be missing. Equal values may be shown once.

Test: cn = amount concentration of the nth substance listed, in mol/dm3
Conditions: 298.15 K, 101.3 kPa, Liquid, Taylor dispersion method

Row | Structure (SMILES) | binary diffusion coefficient (c1 = 0.0025) | binary diffusion coefficient (c1 = 0.025) [m2/s] | binary diffusion coefficient (c1 = 0.05) [m2/s] | binary diffusion coefficient (c1 = 0.075) [m2/s] | binary diffusion coefficient (c1 = 0.085) [m2/s] | binary diffusion coefficient (c1 = 0.1) [m2/s] | binary diffusion coefficient (c1 = 0.00075) [m2/s] | binary diffusion coefficient (c1 = 0.001) [m2/s] | binary diffusion coefficient (c1 = 0.0015) [m2/s] | binary diffusion coefficient (c1 = 0.002) [m2/s]
1 | OC[C@H]1O[C@@H]2O[C@H]3[C@H](O)[C@@H](O)[C@@H](O[C@H]4[C@H](O)[C@@H](O)[C@@H](O[C@H]5[C@H](O)[C@@H](O)[C@@H](O[C@H]6[C@H](O)[C@@H](O)[C@@H](O[C@H]7[C@H](O)[C@@H](O)[C@@H](O[C@H]1[C@H](O)[C@H]2O)O[C@@H]7CO)O[C@@H]6CO)O[C@@H]5CO)O[C@@H]4CO)O[C@@H]3CO [α-cyclodextrin] + O | 3.53e-10 m2/s | – | – | – | – | – | – | – | – | –
2 | CCCCCCCC(=O)[O-].[Na+] [sodium octanoate] + O | – | 8.56e-10 | 8.54e-10 | 8.52e-10 | 8.51e-10 | 8.5e-10 | – | – | – | –
3 | CCCCCCCC(=O)O [octanoic acid] + O | 8.49e-10 m2/s and 8.5e-10 m2/s | – | – | – | – | – | 1.19e-09 | 1.08e-09 | 9.5e-10 | 8.72e-10
